Assays:
[1] = target: T1, Type I 5α-reductase (Homo sapiens, UniProt P18405); assay: Inhibition of type I 5α-reductase (14C-testosterone to dihydrotestosterone, transfected COS7 cell lysate); assay type: biochemical
T1 construct: made in house; host or cells: COS7 cells (ATCC, CRL 1651), transient transfection with pSG5; 100,000×g pellet of the lysate
T1 sequence (P18405 1-259): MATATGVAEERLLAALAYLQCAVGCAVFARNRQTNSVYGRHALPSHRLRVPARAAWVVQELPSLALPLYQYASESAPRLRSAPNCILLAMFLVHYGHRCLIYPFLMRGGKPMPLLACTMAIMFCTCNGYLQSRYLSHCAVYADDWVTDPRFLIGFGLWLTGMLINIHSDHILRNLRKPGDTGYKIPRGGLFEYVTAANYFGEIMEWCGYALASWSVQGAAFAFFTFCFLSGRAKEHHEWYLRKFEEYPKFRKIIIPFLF
Source text: (§1) The coding sequences (complementary deoxyribonucleic acids: cDNAs) of 5α-reductase I and of 5α-reductase II were cloned into the eukaryotic expression vector pSG5 (Stratagene). The enzymes were overexpressed after transient transfection of COS7 cells (ATCC, CRL 1651). The 5α-reductase I and 5α-reductase II cDNAs were obtained by reverse transcription and polymerase chain reaction (PCR) using specific primers from human testicle total RNA (marketed by Clontech).
The primers (SEQ ID NOS.: 1 and 2) used to obtain the 5α-reductase I cDNA were:
+strand: 5′[…] 3′,
−strand: 5′[…] 3′.
(§2) The 5α-reductase I cDNA obtained was inserted, by standard genetic engineering techniques, into the BamHI site of pSG5 and the 5α-reductase II cDNA obtained was inserted into the EcoRI site (see Maniatis et al., Molecular Cloning, Cold Spring Harbor, 1989). […]
(§3) The reaction mixtures were then deposited directly on a silica plate (HPTLC, 60F 254, Merck) and subjected to chromatography (solvent=10% diethyl ether, 90% dichloromethane). They were then analyzed by digital autoradiography (Digital Autoradiography, Berthold).
(§4) The inhibition of the activity of the isoenzymes was measured by calculating the percentage of dihydrotestosterone formed from ^14C-testosterone relative to an untreated control.

[2] = target: T2, Type II 5α-reductase (Homo sapiens, UniProt P31213); assay: Inhibition of type II 5α-reductase (14C-testosterone to dihydrotestosterone, transfected COS7 cell lysate); assay type: biochemical
T2 construct: made in house; host or cells: COS7 cells (ATCC, CRL 1651), transient transfection with pSG5; 100,000×g pellet of the lysate
T2 sequence (P31213 1-254): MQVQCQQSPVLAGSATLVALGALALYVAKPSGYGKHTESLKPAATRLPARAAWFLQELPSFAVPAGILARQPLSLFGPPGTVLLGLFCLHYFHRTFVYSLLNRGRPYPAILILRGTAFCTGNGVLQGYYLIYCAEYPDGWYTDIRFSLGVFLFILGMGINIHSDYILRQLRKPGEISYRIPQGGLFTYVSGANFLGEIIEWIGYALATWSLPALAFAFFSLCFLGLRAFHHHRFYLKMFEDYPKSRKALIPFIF
Source text: as §1
The primers (SEQ ID NOS.: 3 and 4) used to obtain the 5α-reductase II cDNA were:
+strand: 5′GCGATGCAGGTTCAGTG 3′,
−strand: 5′ATTGTGGGAGCTCTGCT 3′.
as §2, §3, §4

COc1cc(OC)c2cc(C(=O)O)[nH]c2c1 [4,6-dimethoxyindole-2-carboxylic acid]
IC50 ([1]; 40 mM pH 6.5 phosphate buffer, 1 nM 14C-testosterone, 5 mM NADPH, 50 minutes at 37° C.): 50 µM | inhibitory effect on the 5α-reductases (type I) ([1]; statement in words): no inhibitory effect | IC50 ([2]; 40 mM pH 5.5 citrate buffer, 1 nM 14C-testosterone, 5 mM NADPH, 50 minutes at 37° C.): > 50 µM | inhibitory effect on the 5α-reductases (type II) ([2]; statement in words): no inhibitory effect

— patent US6541507B1, “Indolecarboxylic compounds for inducing/stimulating hair growth and/or retarding hair loss” (Societe L'Oreal S.A., priority 1999, dated 2003)
